{
  "source": "patent US20240300899A1",
  "about": "“A QUINOLONE COMPOUND IN SOLID FORMS AND PROCESSES FOR THE PREPARATION THEREOF” (ZYDUS LIFESCIENCES LIMITED, priority 2021, published 2024)",
  "type_in_all_cases": "physicochemical",
  "key": {"[1]": {"experiment": "Hygroscopicity test as per EP general texts 5.11", "details": "24-hour exposure over saturated ammonium chloride solution, 25±1° C., 80±2% relative humidity", "method": "Hygroscopicity Data: The test for hygroscopicity was performed as per EP general texts 5.11 page no 565. The test was performed by calculating the difference in weights, after 24-hour upon expose over a saturated solution of ammonium chloride at 25±1° C. and 80±2% relative humidity."}, "[2]": {"experiment": "Stability data on storage (HPLC purity, polymorphic form, impurity content)", "method": "The crystalline form of compound of Formula (I) is characterized by X-ray powder diffraction (XRPD) pattern. In particular, the solid form of compound of Formula (I) is characterized by X-ray powder diffraction pattern obtained using CuKα1 radiation on a PANalytical X'Pert Pro or equivalent X-ray powder diffraction instrument. Particularly, the X-ray powder diffraction spectrum was measured under the following experimental conditions: The HPLC purity of the compound of Formula (I) was calculated using following method: Instrument Name: Waters Alliance e2695 HPLC system or equivalent [table] [table] [table]"}, "[3]": {"experiment": "Powder properties (bulk density, tapped density, angle of repose)"}, "[4]": {"details": "25° C. ± 2° C. and 60% ± 5% Relative Humidity, 1 month"}, "[5]": {"details": "25° C. ± 2° C. and 60% ± 5% Relative Humidity, 15 days"}, "[6]": {"details": "25° C. ± 2° C. and 60% ± 5% Relative Humidity, Initial"}, "[7]": {"details": "30° C. ± 2° C. and 65% ± 5% Relative Humidity, 1 month"}, "[8]": {"details": "30° C. ± 2° C. and 65% ± 5% Relative Humidity, 15 days"}, "[9]": {"details": "30° C. ± 2° C. and 65% ± 5% Relative Humidity, Initial"}, "[10]": {"details": "40° C. ± 2° C. and 75% ± 5 % Relative Humidity, 1 month"}, "[11]": {"details": "40° C. ± 2° C. and 75% ± 5 % Relative Humidity, 15 days"}, "[12]": {"details": "40° C. ± 2° C. and 75% ± 5 % Relative Humidity, Initial"}},
  "data": [
    {"smiles": "O=C(O)CNC(=O)c1c(O)c2ccccc2n(OCC2CC2)c1=O", "note": "[Example-1, (1-(cyclopropylmethoxy)-4-hydroxy-2-oxo-1,2-dihydroquinoline-3-carbonyl) glycine]", "values": [
      {"measurement": "Hygroscopicity result", "setting": "[1]", "result": "Non-hygroscopic"},
      {"measurement": "Increase in mass (hygroscopicity)", "setting": "[1]", "result": "less than 0.2%"},
      {"measurement": "Content of Compound of Formula D", "setting": "[2]; [4]", "result": 0.04, "unit": "%"},
      {"measurement": "HPLC Purity", "setting": "[2]; [4]", "result": 99.91, "unit": "%"},
      {"measurement": "Polymorphic form", "setting": "[2]; [4]", "result": "Unchanged"},
      {"measurement": "Content of Compound of Formula D", "setting": "[2]; [5]", "result": 0.05, "unit": "%"},
      {"measurement": "HPLC Purity", "setting": "[2]; [5]", "result": 99.87, "unit": "%"},
      {"measurement": "Polymorphic form", "setting": "[2]; [5]", "result": "Unchanged"},
      {"measurement": "Content of Compound of Formula D", "setting": "[2]; [6]", "result": 0.04, "unit": "%"},
      {"measurement": "HPLC Purity", "setting": "[2]; [6]", "result": 99.9, "unit": "%"},
      {"measurement": "Content of Compound of Formula D", "setting": "[2]; [7]", "result": 0.04, "unit": "%"},
      {"measurement": "HPLC Purity", "setting": "[2]; [7]", "result": 99.91, "unit": "%"},
      {"measurement": "Polymorphic form", "setting": "[2]; [7]", "result": "Unchanged"},
      {"measurement": "Content of Compound of Formula D", "setting": "[2]; [8]", "result": 0.05, "unit": "%"},
      {"measurement": "HPLC Purity", "setting": "[2]; [8]", "result": 99.83, "unit": "%"},
      {"measurement": "Polymorphic form", "setting": "[2]; [8]", "result": "Unchanged"},
      {"measurement": "Content of Compound of Formula D", "setting": "[2]; [9]", "result": 0.04, "unit": "%"},
      {"measurement": "HPLC Purity", "setting": "[2]; [9]", "result": 99.9, "unit": "%"},
      {"measurement": "Content of Compound of Formula D", "setting": "[2]; [10]", "result": 0.04, "unit": "%"},
      {"measurement": "HPLC Purity", "setting": "[2]; [10]", "result": 99.92, "unit": "%"},
      {"measurement": "Polymorphic form", "setting": "[2]; [10]", "result": "Unchanged"},
      {"measurement": "Content of Compound of Formula D", "setting": "[2]; [11]", "result": 0.05, "unit": "%"},
      {"measurement": "HPLC Purity", "setting": "[2]; [11]", "result": 99.85, "unit": "%"},
      {"measurement": "Polymorphic form", "setting": "[2]; [11]", "result": "Unchanged"},
      {"measurement": "Content of Compound of Formula D", "setting": "[2]; [12]", "result": 0.04, "unit": "%"},
      {"measurement": "HPLC Purity", "setting": "[2]; [12]", "result": 99.9, "unit": "%"},
      {"measurement": "Angle of Repose", "setting": "[3]", "result": 30.6, "unit": "°"},
      {"measurement": "Bulk Density", "setting": "[3]", "result": 0.61, "unit": "g/mL"},
      {"measurement": "Tapped Density", "setting": "[3]", "result": 0.73, "unit": "g/mL"}
    ]}
  ]
}
